From PMC12305494, “Discovery of PXR Antagonist MI891 and PXR Degrader MI1013 and Their Roles in Hepatic Gene Regulation” (Journal of Medicinal Chemistry, 2025)
Where “and” joins values, the source holds several entries; their conditions need not be identical. Identical values can stand only once.

Columns and labels:
[1] = target: T1, human wild-type CAR (CARwt) (Homo sapiens, UniProt Q14994); assay: CARwt luciferase reporter gene assay in HepG2; format: cell-based
T1 construct: expressed in transfected cells; host or cells: HepG2
Protocol: Rhesus monkey, mouse, and rat PXR expression vectors (100 ng/well each) were also obtained from GenScript. […] Carlberg (University of Kuopio, Kuopio, Finland).
(§1) The cells were cultured in DMEM medium (Merck) supplemented with 10% fetal bovine serum.

rhesus monkey PXR (oPXR) = rhesus monkey PXR (oPXR) (Macaca mulatta, UniProt Q8SQ01); assay: Rhesus monkey PXR luciferase reporter assay; format: cell-based; conditions: rifampicin as prototypical inducer
Protocol: The CYP3A4 gene promoter luciferase reporter construct (p3A4-luc) bears a distal XREM (−7836/–7208) and a proximal promoter sequence (prPXRE, −362/+53) from the CYP3A4 gene promoter region. […] The human PXR expression vector (variant 1, NM_003889.3) as well as vectors for mouse, rat, and monkey orthologues were described in our recent paper (39). […] Rhesus monkey, mouse, and rat PXR expression vectors (100 ng/well each) were also obtained from GenScript. […] Carlberg (University of Kuopio, Kuopio, Finland).
as §1

MOLT4 cells = assay: Off-target quantitative global proteomics in MOLT4 cells; format: cell-based, human
Protocol: Cells were lysed by the addition of lysis buffer (8 M Urea, 50 mM NaCl, 50 mM […] (EPPS) pH 8.5, Protease and Phosphatase inhibitors) and homogenization by bead beating (BioSpec) for three repeats of 30 s at 2400. Bradford assay was used to determine the final protein concentration in the clarified cell lysate. 50 μg of protein for each sample was reduced, alkylated, and precipitated using methanol/chloroform as previously described and the resulting washed precipitated protein was allowed to air-dry. Precipitated protein was resuspended in 4 M Urea, 50 mM HEPES pH 7.4, followed by dilution to <1 M urea with the addition of 200 mM EPPS, pH 8. Proteins were digested overnight at 37 °C with LysC (1:50; enzyme:protein) and trypsin (1:50; enzyme:protein). Sample digests were acidified with formic acid to a pH of 2–3 prior to desalting using C18 solid-phase extraction plates (SOLA, Thermo Fisher Scientific). Desalted peptides were dried in a vacuum-centrifuge and reconstituted in 0.1% formic acid for LC-MS analysis. […]
The diaPASEF raw file processing and controlling peptide and protein level false discovery rates, assembling proteins from peptides, and protein quantification from peptides were performed using library-free analysis in DIA-NN 1.8. […]

T1 sequence (Q14994 1-348 isoform Q14994-2): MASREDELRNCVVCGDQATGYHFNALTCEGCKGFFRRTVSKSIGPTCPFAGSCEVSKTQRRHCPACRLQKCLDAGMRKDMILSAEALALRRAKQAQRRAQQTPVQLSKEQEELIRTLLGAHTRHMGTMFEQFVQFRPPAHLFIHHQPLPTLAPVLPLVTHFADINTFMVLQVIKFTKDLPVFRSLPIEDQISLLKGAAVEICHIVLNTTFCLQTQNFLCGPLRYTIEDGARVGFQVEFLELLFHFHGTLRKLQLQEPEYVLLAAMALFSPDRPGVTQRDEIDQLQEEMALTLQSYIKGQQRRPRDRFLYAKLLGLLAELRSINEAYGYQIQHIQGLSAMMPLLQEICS
rhesus monkey PXR (oPXR), sequence (Q8SQ01 whole entry): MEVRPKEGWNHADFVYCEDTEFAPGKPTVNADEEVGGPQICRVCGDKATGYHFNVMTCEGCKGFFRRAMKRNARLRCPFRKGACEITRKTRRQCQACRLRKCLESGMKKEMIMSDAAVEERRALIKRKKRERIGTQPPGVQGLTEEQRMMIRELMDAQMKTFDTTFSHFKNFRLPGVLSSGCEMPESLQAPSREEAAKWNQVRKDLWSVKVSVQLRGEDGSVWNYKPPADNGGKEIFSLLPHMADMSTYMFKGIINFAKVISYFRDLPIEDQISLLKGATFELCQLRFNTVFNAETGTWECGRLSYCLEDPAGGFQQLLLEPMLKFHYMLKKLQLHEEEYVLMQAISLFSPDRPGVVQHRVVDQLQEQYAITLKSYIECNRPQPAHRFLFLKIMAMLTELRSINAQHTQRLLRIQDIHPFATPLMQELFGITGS

EC50 ([1]; HepG2, read-out: CARwt activation EC50)	activation of CARwt ([1]; at concentrations up to 10 μM)	activity on rhesus monkey PXR (oPXR) (rhesus monkey PXR (oPXR))	Compound	IKZF1, IKZF3 and ZFP91 levels, global proteomics (MOLT4 cells)	GSPT1 expression, global proteomics (MOLT4 cells; 2 μM of MI1013)
~137 µM and 137 µM	no significant activation	full agonism	NC(=O)c1cc(Cn2cc(-c3c(-c4ccc(Cl)cc4)nc4c(F)cc(F)cn34)nn2)ccc1Cl [Compound 11, 2-Chloro-5-((4-(2-(4-chlorophenyl)-6,8-difluoroimidazo[1,2-a]pyridin-3-yl)-1H-1,2,3-triazol-1-yl)methyl)-benzamide]		
			N-(4-((1-(2,5-dimethoxyphenyl)-5-methyl-1H-1,2,3-triazol-4-yl)sulfonyl)phenyl)-3-(2-(2-(2-(4-(((2-(2,6-dioxopiperidin-3-yl)-1,3-dioxoisoindolin-4-yl)amino)methyl)-1H-1,2,3-triazol-1-yl)ethoxy)ethoxy)ethoxy)propenamide [Compound 36]	degradation	remains undegraded
